Where only a bound is given, the exact number is not on record here.

These results are taken from patent publication US20240082203A1, “PHARMACEUTICAL COMPOSITION FOR INHALATION” (SHANGHAI HUILUN BIOLOGICAL TECHNOLOGY CO., LTD., priority 2020, published 2024).

One data set can be described thus: physchem. The class given is physicochemical. To be noted: water. The procedure: The solubility of sivelestat sodium in water is less than 0.4 mg/mL, which cannot meet the administration requirements as an injection or inhalation preparation. Besides, sivelestat sodium is prone to hydrolysis in aqueous solution, generating the impurity with the following structure (hereinafter referred to as “impurity A”).

The conditions of data set [1]: lyophilized preparation of Document 5 (anhydrous sodium carbonate, sodium chloride) kept at 60° C. for two weeks, per Document 4; cited from earlier work.

The term solubility denotes the concentration that dissolves in the medium under given conditions. For the compound `CC(C)(C)C(=O)Oc1ccc(S(=O)(=O)Nc2ccccc2C(=O)NCC(=O)O)cc1` [sivelestat sodium, N-[2-[[[4-(2,2-dimethyl-1-oxopropoxy)phenyl]sulfonyl]amino]benzoyl]-(S)-glycine], the solubility in “physchem” was below 400 µg/mL. In data set [1], the “residual rate of sivelestat sodium” value was 91.4%.
